Laboratory results: article PMC2744931, “Glutamate Uptake Triggers Transporter-Mediated GABA Release from Astrocytes” (PLoS ONE, 2009)
Where two headings read alike, the source gives them in different places. Values belong to the molecule of their own block, whether it stands above or below them.

Legend:
[1] = tested on: acute rat hippocampal slices; experiment: [3H]GABA efflux from acute rat hippocampal slices (microvolume superfusion); type: cell-based; conditions: for effect on Glu-induced GABA release in hippocampal slices: DL-AP5 50 µM, CNQX 10 µM, (S)-MCPG 500 µM applied as Glu receptor antagonists
Method: Radiolabeling of 400 µm thick acute slices was conducted in 200 µl of ACSF in a glass tube. […] To preferentially label the cytosolic over the vesicular pools, incubation of slices at 30°C lasted for 10 min [54]. Slices were washed with fresh ACSF containing GABA-T inhibitors, thereafter placed in a custom-built closed micro-volume (50 µl) chamber secured in a water bath thermostated at 30°C [55]. […] The superfusate was collected in 0.5 ml fractions. After washing for 10 min, 10 fractions were collected to define the basal release of radioactivity (‘pre-stimulus’). At this point, the hippocampal slice was exposed to 100 µM Glu for a period of 10 min (‘drug application’), followed by further 10 min of washing with ACSF (‘washout’). Radioactivity of each 0.5 ml fraction counted in 3 ml HiSafe 3 scintillation mixture was expressed as the percentage of the actual radioactivity content of the slice (fractional release). Fractional release data from individual slices were normalized to a first order exponential curve (obtained by fitting the pre-stimulus and the last 3 washout values). Normalized percent efflux data from fractions of ‘pre-stimulus’ (1–10 min) versus ‘drug application’ (11–20 min) periods were averaged and compared by statistical analysis.

[2] = tested on: GABA transport in rat cerebrocortical NPMV (GAT-2/3); experiment: [3H]GABA uptake in rat cerebrocortical native plasma membrane vesicles (NPMV) in the presence of 100 µM NNC-711; type: biochemical; conditions: for modulation of the effect of Glu on GABA transport / cytosolic GABA level in rat cortical NPMV: 100 µM NNC-711 present; for effect on GABA transport in rat cortical NPMV: 10 min preincubation, 100 µM NNC-711 (Figure 1B)
Method: Cerebral cortices of 4–6 weeks old male Wistar rats (Toxicoop, Hungary) and frozen human brain tissue samples (Hungarian Brain Tissue Bank, Budapest) were used to prepare NPMV fractions, that contain numerous membrane vesicles of different sizes and shapes, a few intact synaptosomes and free mitochondria. […] Afterward, preincubated solution was incubated with [^3H]GABA (10 nM, Amersham) and GABA (90 nM, Sigma) for 1 min. In case of [^3H]β-alanine uptake, incubation solution contained 100 nM [^3H]β-alanine (Amersham) and 900 nM β-alanine (Sigma). After the incubation, samples were immediately filtered through glass fiber filters and washed twice with ice-cold HEPES buffer. The [^3H]GABA level inside the plasma membrane vesicles was determined by liquid scintillation method. Although this method is generally used to measure GABA uptake, we applied it to follow GABA release due to the simplicity and reliability of the assay. We also determined GABA release by preloading [^3H]GABA into NPMV vesicles and measuring the [^3H]GABA level in the intracellular and extracellular milieu. […] Non-specific uptake was determined in the presence of 1 mM guvacine. The radioactivity of samples was counted in HiSafe 3 (Perkin Elmer) scintillation mixture.

hippocampus = conditions: cited from earlier work
GAT-1 = tested on: GAT-1; parameters: method as in Borden,L.A. (1996) Neurochem Int. 4: 335–356; conditions: ref Borden,L.A. (1996) Neurochem Int. 4: 335–356; cited from earlier work
BGT = tested on: BGT; parameters: method as in Borden,L.A. (1996) Neurochem Int. 4: 335–356; conditions: ref Borden,L.A. (1996) Neurochem Int. 4: 335–356; cited from earlier work
GAT-2 = tested on: GAT-2; parameters: method as in Borden,L.A. (1996) Neurochem Int. 4: 335–356; conditions: ref Borden,L.A. (1996) Neurochem Int. 4: 335–356; cited from earlier work
GAT-3 = tested on: GAT-3; parameters: method as in Borden,L.A. (1996) Neurochem Int. 4: 335–356; conditions: ref Borden,L.A. (1996) Neurochem Int. 4: 335–356; cited from earlier work
rat hippocampus = experiment: In vivo microdialysis and HPLC amino acid detection in the hippocampus
Method: Male Wistar rats (300–400 g) were anaesthetized with halothane (1% in air) and microdialysis probes were implanted into the ventral hippocampus (A: −5.0, L: 5.0, V: −8.0) as described previously. To minimize tissue damage, the final position of the probes was reached slowly, in not less than 20 min. Perfusion of artificial cerebrospinal fluid, containing 144 mM NaCl, 3 mM KCl, 1 mM MgCl2, 2 mM CaCl2 (pH 7.4), was performed at a rate of 1 µl/min. The dialysate samples during 20 min were stored at −20°C. To establish the background amino acid concentration, each experiment started with the collection of three control samples with <10% variation. NNC-711 was applied bilaterally for 60 min followed by the simultaneous application of t-PDC and NNC-711 for 60 min. Concentration of amino acids was measured by pre-column derivatization of primary amino acids with orthophthalaldehyde (OPA, Sigma). Derivatization was performed at pH 10.4 in the presence of mercaptoethanol. OPA-derivatized amino acids were detected with fluorescence detector excitation wavelength 340 nm and emission wavelength 440 nm. Because of the instability of OPA derivatives, the HPLC technique was automated on an HP 1100 series system. Amino acids were separated on HP Hypersyl ODS reversed-phase columns (200×2.1 mm) filled with 5 µm C-18 spherical packing material. Eluent A was 0.1 M phosphate buffer containing 0.5% (vol/vol) tetrahydrofuran (Merck), pH 5.6, while eluent B contained 70% acetonitrile (Merck) in eluent A, pH 5.6. The gradient profile was: 12% B at 0 min, 23% B at 9 min, 36% B at 18 min, 100% B at 20 min, 100% B at 25 min and 12% B at 30 min. The column equilibration time was 8 min. External standards of 10 µM amino acids were injected after every 20 samples. Chromatograms were evaluated with HP Chem-Station software. Concentration of GABA measured in dialysate samples collected during drug applications were related to averaged GABA concentration of control samples collected for an hour prior to drug application and were given as percent changes.

[3] = tested on: acute rat hippocampal slices; experiment: [3H]GABA efflux from acute rat hippocampal slices (microvolume superfusion); type: cell-based; conditions: for alteration of [GABA]o during blockade of GAT-2/3: no exogenous Glu, n = 5
[4] = GABA transport in the presence of 100 µM NNC-711, present study, read-out: IC50 Rat cerebrocortical NPMV
[5] = rat cortical NPMV, in the presence of NNC-711, read-out: IC50, effect on GABA transport
[6] = 100 µM SNAP-5114, nominally Mg2+-free ACSF

Molecule: 6-cyano-7-nitroquinoxaline-2,3-dione [CNQX]
- effect on Glu-induced GABA release in hippocampal slices [1]: partially inhibited

Molecule: NC(CCCP(=O)(O)O)C(=O)O (racemic) [DL-AP5, DL-2-amino-5-phosphonopentanoic acid]
- effect on Glu-induced GABA release in hippocampal slices [1]: partially inhibited

Molecule: N[C@H](C(=O)O)[C@H](OCc1ccccc1)C(=O)O (racemic) [TBOA, DL-threo-β-benzyloxyaspartic acid]
- modulation of the effect of Glu on GABA transport / cytosolic GABA level in rat cortical NPMV [2]: further reduced
- elevation of [GABA]o ([3H]GABA efflux) ([1]; Glu-induced release in the presence of 100 µM TBOA, n = 4): 123±10 % of pre-stimulus control
- elevation of [GABA]o ([3H]GABA efflux) ([1]; Glu-induced release in the presence of 1000 µM TBOA, n = 4): 109±1 % of pre-stimulus control
- neuronal damage after in vivo administration in the hippocampus (hippocampus): induce neuronal damage in the CA1 and the dentate gyrus

Molecule: C[N+]1(C)CCc2cc3c(cc2[C@H]1[C@@H]1OC(=O)c2c1ccc1c2OCO1)OCO3.[I-] [(1S,9R)-bicuculline methiodide]
- modulation of the effect of Glu on GABA transport / cytosolic GABA level in rat cortical NPMV [2]: did not modulate the effect of Glu on the cytosolic GABA level

Molecule: NC[C@H](CC(=O)O)c1ccc(Cl)cc1 [(R)-baclofen]
- modulation of the effect of Glu on GABA transport / cytosolic GABA level in rat cortical NPMV [2]: did not modulate the effect of Glu on the cytosolic GABA level

Molecule: C[C@@](N)(C(=O)O)c1ccc(C(=O)O)cc1 [(S)-MCPG, (S)-α-methyl-4-carboxyphenylglycine]
- effect on Glu-induced GABA release in hippocampal slices [1]: partially inhibited

- IC50 [2, 4]: > 1000 µM
Molecule: C[N+](C)(C)CC(=O)O [Betaine]
- IC50 (GAT-1): > 1000 µM
- IC50 (BGT): 173 µM
- IC50 (GAT-2): > 1000 µM
- IC50 (GAT-3): > 1000 µM

Molecule: [Cd+2] [Cd^2+]
- elevation of [GABA]o ([3H]GABA efflux) ([1]; Glu-induced release in the presence of 50 µM Cd2+ salt in the superfusion, n = 3): 143±10 % of pre-stimulus control

Molecule: N[C@H](CC(=O)O)C(=O)O [D-Asp]
- effect on GABA transport in rat cortical NPMV [2]: able to affect GABA transport

Molecule: N[C@H](CCC(=O)O)C(=O)O [D-Glu]
- effect on GABA transport in rat cortical NPMV [2]: able to affect GABA transport

Molecule: CC(C)C[C@@H](N)C(=O)O [D-Leu]
- IC50 [2, 5]: > 1000 µM

Molecule: N[C@H](CO)C(=O)O [D-Ser]
- IC50 [2, 5]: > 1000 µM

Molecule: CC(C)[C@H]1CN[C@H](C(=O)O)[C@H]1CC(=O)O [DHK, dihydrokainic acid]
- modulation of the effect of Glu on GABA transport / cytosolic GABA level in rat cortical NPMV [2]: significantly reduced

Molecule: NCCS(=O)O [Hypotaurine]
- IC50 [2, 4]: 20 ± 0.4 µM
- IC50 (GAT-1): 1010 µM
- IC50 (BGT): 536 µM
- IC50 (GAT-2): 52 µM
- IC50 (GAT-3): 73 µM

Molecule: N[C@@H](CC(=O)O)C(=O)O [L-Asp]
- effect on GABA transport in rat cortical NPMV [2]: able to affect GABA transport

Molecule: CC(C)C[C@H](N)C(=O)O [L-Leu]
- IC50 [2, 5]: > 1000 µM

Molecule: N[C@@H](CO)C(=O)O [L-Ser]
- IC50 [2, 5]: > 1000 µM

Molecule: O=C(O)C1=CCCN(CCON=C(c2ccccc2)c2ccccc2)C1 [NNC-711, 1,2,5,6-tetrahydro-1-[2-[[(diphenylmethylene)amino]oxy]ethyl]-3-pyridinecarboxylic acid]
- reduction of the [3H]GABA uptake ([2]; 100 µM NNC-711, NPMV fractions, n = 51): 86±3%
- [Arginine]o in the rat hippocampus in vivo (rat hippocampus; control for non-specific release, n = 10): 100±25 % of control
- [GABA]o in the rat hippocampus in vivo (rat hippocampus; microdialysis application, t-PDC applied together with NNC-711, n = 10): 160±18 % of control

Molecule: O=C(O)C1CCCNC1 (centres unmarked) [Nipecotic acid]
- IC50 [2, 4]: 28 ± 0.5 µM

Molecule: O=C(O)C1CCCN(CCC=C(c2ccccc2)c2ccccc2)C1 (centres unmarked) [SKF89976A]
- IC50 [2, 4]: 372 ± 9 µM
- IC50 (GAT-1): 0.64 µM
- IC50 (BGT): 7210 µM
- IC50 (GAT-2): 550 µM
- IC50 (GAT-3): 4390 µM

Molecule: COc1ccc(C(OCCN2CCC[C@H](C(=O)O)C2)(c2ccc(OC)cc2)c2ccc(OC)cc2)cc1 [SNAP-5114, 1-[2-[tris(4-methoxyphenyl)methoxy]ethyl]-(S)-3-piperidinecarboxylic acid]
- elevation of [GABA]o ([3H]GABA efflux) ([1]; Glu-induced release in the presence of SNAP-5114, n = 4): 109±4 % of pre-stimulus control
- reduction of [3H]GABA release compared to the pre-application period [3, 6]: 10%
- alteration of [GABA]o during blockade of GAT-2/3 [3, 6]: 90±4 % of pre-application control
- alteration of [GABA]o during blockade of GAT-2/3 ([3]; 100 µM SNAP-5114, normal ACSF): 100±6 % of pre-application control

- IC50 [2, 4]: 400 ± 7 µM
Molecule: NCCS(=O)(=O)O [Taurine]
- IC50 (GAT-1): > 1000 µM
- IC50 (BGT): > 1000 µM
- IC50 (GAT-2): 1270 µM
- IC50 (GAT-3): 2860 µM

Molecule: N[C@@H](CS(=O)(=O)O)C(=O)O [cysteic acid]
- effect on GABA transport in rat cortical NPMV [2]: able to affect GABA transport

- IC50 [2, 5]: > 1000 µM
Molecule: NCCc1ccc(O)c(O)c1 [dopamine]

- IC50 [2, 5]: > 1000 µM
Molecule: NCCc1c[nH]c2ccc(O)cc12 [serotonin]

Molecule: O=C(O)CCC(=O)O [succinate]
- IC50 ([2]; read-out: IC50, effect on GABA transport): > 1000 µM

- IC50 [2, 4]: 26 ± 4 µM
Molecule: NCCC(=O)O [β-alanine]
- IC50 (GAT-1): 2920 µM
- IC50 (BGT): 1100 µM
- IC50 (GAT-2): 66 µM
- IC50 (GAT-3): 110 µM

Molecule: penicillin
- IC50 [2, 5]: > 1000 µM
